Test results taken from patent publication US7138361B2, “Herbicidal heterocycles” (E. I. du Pont de Nemours and Company, priority 2000, dated 2006).

What was measured:
Assay in all cases: Test C postemergence
Assay type in all cases: in vivo
[1] = test system: common ragweed (Ambrosia elatior); conditions: scale 0 to 100
In short: (§1)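 Test chemicals, formulated in a non-phytotoxic solvent mixture with surfactant, were applied preemergence to planted seeds or postemergence to plants 2 to 18 cm tall (1- to 4-leaf stage). After 12 to 14 days in a greenhouse, injury was visually rated against untreated controls on a 0–100 scale.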

soybean (Glycine max) = test system: soybean (Glycine max)
In short: as §1

[2] = test system: woolly cupgrass (Eriochloa villosa)
In short: as §1

[3] = test system: bermudagrass (Cynodon dactylon)
In short: as §1

[4] = test system: morningglory (Ipomoea hederacea)
In short: as §1

[5] = test system: giant foxtail (Setaria faberii)
In short: as §1

[6] = test system: crabgrass (Digitaria sanguinalis)
In short: as §1

[7] = test system: cocklebur (Xanthium strumarium)
In short: as §1

[8] = test system: velvetleaf (Abutilon theophrasti)
In short: as §1

[9] = test system: Surinam grass (Brachiaria decumbens)
In short: as §1

[10] = test system: yellow nutsedge (Cyperus esculentus)
In short: as §1

[11] = test system: johnsongrass (Sorghum halepense)
In short: as §1

[12] = test system: goosegrass (Eleusine indica)
In short: as §1

corn (Zea mays) = test system: corn (Zea mays)
In short: as §1

[13] = Rate 250 g/ha, scale 0 to 100 (0 no effect, 100 complete control)
[14] = Rate 125 g/ha, scale 0 to 100, 0 no effect, 100 complete control
[15] = Rate 500 g/ha, scale 0 to 100 (0 no effect, 100 complete control)

## Cc1ccc(N2CCC(n3ccc(C(C)(C)C)n3)C2=O)cc1OCCCl (centres unmarked) [Compound 109]
[1]; Rate 31 g/ha
  Plant response rating, Ragweed, Common: 0
[1]; Rate 62 g/ha
  Plant response rating, Ragweed, Common: 0
Soybean (Glycine max); Rate 31 g/ha, scale 0 to 100
  Plant response rating, Soybean: 60
Soybean (Glycine max); Rate 62 g/ha, scale 0 to 100
  Plant response rating, Soybean: 70
Soybean (Glycine max); [13]
  Plant response rating, Soybean: 70
[2]; Rate 31 g/ha, scale 0 to 100
  Plant response rating, Cupgrass, Woolly: 0
[2]; Rate 62 g/ha, scale 0 to 100
  Plant response rating, Cupgrass, Woolly: 0
[2]; [13]
  Plant response rating, Cupgrass, Woolly: 0
[3]; Rate 31 g/ha, scale 0 to 100
  Plant response rating, Bermudagrass: 0
[3]; Rate 62 g/ha, scale 0 to 100
  Plant response rating, Bermudagrass: 0
[3]; [14]
  Plant response rating, Bermudagrass: 10
[3]; [13]
  Plant response rating, Bermudagrass: 20
[4]; Rate 31 g/ha, scale 0 to 100
  Plant response rating, Morningglory: 60
[4]; Rate 62 g/ha, scale 0 to 100
  Plant response rating, Morningglory: 100
[5]; Rate 31 g/ha, scale 0 to 100
  Plant response rating, Foxtail, Giant: 0
[5]; Rate 62 g/ha, scale 0 to 100
  Plant response rating, Foxtail, Giant: 0
[5]; [13]
  Plant response rating, Foxtail, Giant: 0
[6]; Rate 31 g/ha, scale 0 to 100
  Plant response rating, Crabgrass: 0
[6]; Rate 62 g/ha, scale 0 to 100
  Plant response rating, Crabgrass: 0
[6]; [13]
  Plant response rating, Crabgrass: 0
[7]; Rate 31 g/ha, scale 0 to 100
  Plant response rating, Cocklebur: 0
[7]; Rate 62 g/ha, scale 0 to 100
  Plant response rating, Cocklebur: 40
[8]; Rate 31 g/ha, scale 0 to 100
  Plant response rating, Velvetleaf: 20
[8]; Rate 62 g/ha, scale 0 to 100
  Plant response rating, Velvetleaf: 40
[8]; scale 0 to 100
  Plant response rating, Velvetleaf: 70
[9]; Rate 31 g/ha, scale 0 to 100
  Plant response rating, Surinam grass: 0
[9]; Rate 62 g/ha, scale 0 to 100
  Plant response rating, Surinam grass: 0
[9]; [14]
  Plant response rating, Surinam grass: 0
[9]; [13]
  Plant response rating, Surinam grass: 0
[10]; Rate 31 g/ha, scale 0 to 100
  Plant response rating, Nutsedge: 0
[10]; Rate 62 g/ha, scale 0 to 100
  Plant response rating, Nutsedge: 0
[10]; [13]
  Plant response rating, Nutsedge: 0
[11]; Rate 31 g/ha, scale 0 to 100
  Plant response rating, Johnsongrass: 0
[11]; Rate 62 g/ha, scale 0 to 100
  Plant response rating, Johnsongrass: 0
[11]; [13]
  Plant response rating, Johnsongrass: 0
[11]; rate not given, scale 0 to 100
  Plant response rating, Johnsongrass: 0
[12]; Rate 31 g/ha, scale 0 to 100
  Plant response rating, Goosegrass: 0
[12]; Rate 62 g/ha, scale 0 to 100
  Plant response rating, Goosegrass: 0
[12]; [13]
  Plant response rating, Goosegrass: 10
Corn (Zea mays); Rate 31 g/ha, scale 0 to 100
  Plant response rating, Corn: 0
Corn (Zea mays); Rate 62 g/ha, scale 0 to 100
  Plant response rating, Corn: 0
Corn (Zea mays); scale 0 to 100
  Plant response rating, Corn: 40

## Cc1ccc(N2CCC(n3ccc(C(C)(C)C)n3)C2=O)cc1I (centres unmarked) [Compound 122]
Soybean (Glycine max); Rate 62 g/ha, scale 0 to 100
  Plant response rating, Soybean: 40
Soybean (Glycine max); [13]
  Plant response rating, Soybean: 50
Soybean (Glycine max); [15]
  Plant response rating, Soybean: 60
[2]; Rate 62 g/ha, scale 0 to 100
  Plant response rating, Cupgrass, Woolly: 0
[2]; [13]
  Plant response rating, Cupgrass, Woolly: 20
[2]; [15]
  Plant response rating, Cupgrass, Woolly: 20
[3]; Rate 62 g/ha, scale 0 to 100
  Plant response rating, Bermudagrass: 0
[3]; [14]
  Plant response rating, Bermudagrass: 0
[3]; [13]
  Plant response rating, Bermudagrass: 0
[3]; [15]
  Plant response rating, Bermudagrass: 0
[4]; Rate 62 g/ha, scale 0 to 100
  Plant response rating, Morningglory: 20
[4]; [13]
  Plant response rating, Morningglory: 90
[4]; [15]
  Plant response rating, Morningglory: 100
[5]; Rate 62 g/ha, scale 0 to 100
  Plant response rating, Foxtail, Giant: 0
[5]; [13]
  Plant response rating, Foxtail, Giant: 0
[5]; [15]
  Plant response rating, Foxtail, Giant: 40
[6]; Rate 62 g/ha, scale 0 to 100
  Plant response rating, Crabgrass: 0
[6]; [13]
  Plant response rating, Crabgrass: 0
[6]; [15]
  Plant response rating, Crabgrass: 0
[7]; Rate 62 g/ha, scale 0 to 100
  Plant response rating, Cocklebur: 20
[7]; [13]
  Plant response rating, Cocklebur: 40
[7]; [15]
  Plant response rating, Cocklebur: 70
[8]; Rate 62 g/ha, scale 0 to 100
  Plant response rating, Velvetleaf: 0
[8]; [13]
  Plant response rating, Velvetleaf: 0
[8]; [15]
  Plant response rating, Velvetleaf: 20
[8]; scale 0 to 100
  Plant response rating, Velvetleaf: 0
[9]; Rate 62 g/ha, scale 0 to 100
  Plant response rating, Surinam grass: 0
[9]; [14]
  Plant response rating, Surinam grass: 0
[9]; [13]
  Plant response rating, Surinam grass: 0
[9]; [15]
  Plant response rating, Surinam grass: 0
[10]; Rate 62 g/ha, scale 0 to 100
  Plant response rating, Nutsedge: 0
[10]; [13]
  Plant response rating, Nutsedge: 0
[10]; [15]
  Plant response rating, Nutsedge: 0
[11]; Rate 62 g/ha, scale 0 to 100
  Plant response rating, Johnsongrass: 0
[11]; [13]
  Plant response rating, Johnsongrass: 0
[11]; [15]
  Plant response rating, Johnsongrass: 0
[11]; rate not given, scale 0 to 100
  Plant response rating, Johnsongrass: 0
[12]; Rate 62 g/ha, scale 0 to 100
  Plant response rating, Goosegrass: 0
[12]; [13]
  Plant response rating, Goosegrass: 0
[12]; [15]
  Plant response rating, Goosegrass: 0
Corn (Zea mays); Rate 62 g/ha, scale 0 to 100
  Plant response rating, Corn: 0
Corn (Zea mays); [13]
  Plant response rating, Corn: 0
Corn (Zea mays); [15]
  Plant response rating, Corn: 0
Corn (Zea mays); scale 0 to 100
  Plant response rating, Corn: 0
